Measurements: ChEMBL document CHEMBL1201862, “PubChem BioAssay data set” (2004)
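Test compounds were applied to cells in 96-well plates for 48 hours at 5 doses. At the GI50, growth is halved.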 Calls of active or inactive are those of the source. Rule as the data show it: active = GI50 up to about 1.1 µM and inactive = higher.

Legend:
Assay in all cases: growth of human tumour cells (NCI), 48 h
NCI-H23 = system: NCI-H23
NCI-H522 = system: NCI-H522
ACHN = system: ACHN
786-0 = system: 786-0
SK-MEL-2 = system: SK-MEL-2
RXF 393 = system: RXF 393
HL-60 = system: HL-60
MDA-N = system: MDA-N
Hs-578T = system: Hs-578T
NCI-H460 = system: NCI-H460
SR = system: SR
SF-539 = system: SF-539
T47D = system: T47D
MCF7 = system: MCF7
PC-3 = system: PC-3
SF-268 = system: SF-268
IGROV-1 = system: IGROV-1
M14 = system: M14
SK-MEL-28 = system: SK-MEL-28
HCT-15 = system: HCT-15
TK-10 = system: TK-10
HOP-62 = system: HOP-62
UO-31 = system: UO-31
HT-29 = system: HT-29
U-251 = system: U-251
COLO 205 = system: COLO 205
OVCAR-3 = system: OVCAR-3
MDA-MB-435 = system: MDA-MB-435
A549 = system: A549
SK-MEL-5 = system: SK-MEL-5
K562 = system: K562
MDA-MB-231 = system: MDA-MB-231
SK-OV-3 = system: SK-OV-3
SNB-19 = system: SNB-19
HOP-92 = system: HOP-92
UACC-257 = system: UACC-257
HCT-116 = system: HCT-116
NCI/ADR-RES = system: NCI/ADR-RES
OVCAR-8 = system: OVCAR-8
EKVX = system: EKVX
A498 = system: A498
DU-145 = system: DU-145
SF-295 = system: SF-295
SN12C = system: SN12C
MOLT-4 = system: MOLT-4
CAKI-1 = system: CAKI-1
HCC 2998 = system: HCC 2998
BT-549 = system: BT-549
LOX IMVI = system: LOX IMVI
KM12 = system: KM12
CCRF-CEM = system: CCRF-CEM
NCI-H226 = system: NCI-H226
OVCAR-5 = system: OVCAR-5
OVCAR-4 = system: OVCAR-4
UACC-62 = system: UACC-62
SW-620 = system: SW-620
SNB-75 = system: SNB-75
RPMI-8226 = system: RPMI-8226

SMILES: Cc1ccc2sc3ccc(N)cc3c(=O)c2c1
- GI50 (NCI-H23): 81.8 µM (inactive)
- GI50 (NCI-H522): 30.3 µM (inactive)
- GI50 (ACHN): 37.8 µM (inactive)
- GI50 (786-0): 54.5 µM (inactive)
- GI50 (SK-MEL-2): 53.6 µM (inactive)
- GI50 (RXF 393): 38.5 µM (inactive)
- GI50 (HL-60): 33.7 µM (inactive)
- GI50 (MDA-N): 26.8 µM (inactive)
- GI50 (Hs-578T): 47.2 µM (inactive)
- GI50 (NCI-H460): 41.3 µM (inactive)
- GI50 (SR): 68.2 µM (inactive)
- GI50 (SF-539): 53.2 µM (inactive)
- GI50 (T47D): 14.9 µM (inactive)
- GI50 (MCF7): 26.5 µM (inactive)
- GI50 (PC-3): 55.1 µM (inactive)
- GI50 (SF-268): > 100 µM (inactive)
- GI50 (IGROV-1): 33.8 µM (inactive)
- GI50 (M14): 90.2 µM (inactive)
- GI50 (SK-MEL-28): > 100 µM (inactive)
- GI50 (HCT-15): 24.8 µM
- GI50 (TK-10): > 100 µM (inactive)
- GI50 (HOP-62): 32.8 µM (inactive)
- GI50 (UO-31): 29 µM (inactive)
- GI50 (HT-29): 30.2 µM (inactive)
- GI50 (U-251): 61.2 µM (inactive)
- GI50 (COLO 205): 42.5 µM (inactive)
- GI50 (OVCAR-3): 32 µM (inactive)
- GI50 (MDA-MB-435): 36.9 µM (inactive)
- GI50 (A549): 54.2 µM (inactive)
- GI50 (SK-MEL-5): 51.9 µM (inactive)
- GI50 (K562): 37.6 µM (inactive)
- GI50 (MDA-MB-231): 86.7 µM (inactive)
- GI50 (SK-OV-3): 41.6 µM (inactive)
- GI50 (SNB-19): > 100 µM (inactive)
- GI50 (HOP-92): 32.9 µM (inactive)
- GI50 (UACC-257): > 100 µM (inactive)
- GI50 (HCT-116): 33.8 µM (inactive)
- GI50 (NCI/ADR-RES): 53.2 µM (inactive)
- GI50 (OVCAR-8): > 100 µM (inactive)
- GI50 (EKVX): 21.1 µM (inactive)
- GI50 (A498): 22.4 µM (inactive)
- GI50 (DU-145): 53 µM (inactive)
- GI50 (SF-295): 40.4 µM (inactive)
- GI50 (SN12C): 81.1 µM (inactive)
- GI50 (MOLT-4): 11.4 µM (inactive)
- GI50 (CAKI-1): 30.7 µM (inactive)
- GI50 (HCC 2998): 37.2 µM (inactive)
- GI50 (BT-549): 51.9 µM (inactive)
- GI50 (LOX IMVI): 28.1 µM (inactive)
- GI50 (KM12): 20.7 µM (inactive)
- GI50 (CCRF-CEM): 40.3 µM (inactive)
- GI50 (NCI-H226): 82.4 µM (inactive)
- GI50 (OVCAR-5): > 100 µM (inactive)
- GI50 (OVCAR-4): 63.5 µM (inactive)
- GI50 (UACC-62): 51.9 µM (inactive)
- GI50 (SW-620): 62.1 µM (inactive)

SMILES: Cc1c(C(C)C)cc(OCCO)cc1C(C)C
- GI50 (NCI-H23): 42.3 µM (inactive)
- GI50 (NCI-H522): 25.9 µM (inactive)
- GI50 (ACHN): 51.4 µM (inactive)
- GI50 (786-0): 24.4 µM (inactive)
- GI50 (SK-MEL-2): 23.9 µM (inactive)
- GI50 (RXF 393): 16.6 µM (inactive)
- GI50 (HL-60): 23.1 µM (inactive)
- GI50 (MDA-N): 31.2 µM (inactive)
- GI50 (Hs-578T): 27.8 µM (inactive)
- GI50 (NCI-H460): 36.4 µM (inactive)
- GI50 (SR): 26.7 µM (inactive)
- GI50 (SF-539): 55.5 µM (inactive)
- GI50 (T47D): 26.9 µM (inactive)
- GI50 (MCF7): 33 µM (inactive)
- GI50 (PC-3): 30.8 µM (inactive)
- GI50 (SF-268): 35.5 µM (inactive)
- GI50 (IGROV-1): 58.3 µM (inactive)
- GI50 (M14): 38.8 µM (inactive)
- GI50 (SK-MEL-28): 87.9 µM (inactive)
- GI50 (HCT-15): 35.6 µM
- GI50 (TK-10): > 100 µM (inactive)
- GI50 (HOP-62): 75.7 µM (inactive)
- GI50 (UO-31): 67.1 µM (inactive)
- GI50 (HT-29): 26.6 µM (inactive)
- GI50 (U-251): 40.6 µM (inactive)
- GI50 (COLO 205): 34.8 µM (inactive)
- GI50 (OVCAR-3): 47.5 µM (inactive)
- GI50 (MDA-MB-435): 31.5 µM (inactive)
- GI50 (A549): 38.3 µM (inactive)
- GI50 (SK-MEL-5): 17.6 µM (inactive)
- GI50 (K562): 41.7 µM (inactive)
- GI50 (MDA-MB-231): 32.9 µM (inactive)
- GI50 (SK-OV-3): > 100 µM (inactive)
- GI50 (SNB-19): 66.2 µM (inactive)
- GI50 (HOP-92): 19.8 µM (inactive)
- GI50 (UACC-257): 35.2 µM (inactive)
- GI50 (HCT-116): 31.3 µM (inactive)
- GI50 (NCI/ADR-RES): 40 µM (inactive)
- GI50 (OVCAR-8): 42.3 µM (inactive)
- GI50 (EKVX): 31 µM (inactive)
- GI50 (SNB-75): 23.9 µM (inactive)
- GI50 (A498): 31.3 µM (inactive)
- GI50 (DU-145): 73.6 µM (inactive)
- GI50 (SF-295): 34.4 µM (inactive)
- GI50 (SN12C): 30.2 µM (inactive)
- GI50 (MOLT-4): 34.1 µM (inactive)
- GI50 (CAKI-1): 70.6 µM (inactive)
- GI50 (HCC 2998): 55.6 µM (inactive)
- GI50 (BT-549): 37.2 µM (inactive)
- GI50 (LOX IMVI): 24.9 µM (inactive)
- GI50 (KM12): 43.2 µM (inactive)
- GI50 (CCRF-CEM): 35.4 µM (inactive)
- GI50 (NCI-H226): 34.8 µM (inactive)
- GI50 (OVCAR-5): 66.4 µM (inactive)
- GI50 (RPMI-8226): 25.2 µM (inactive)
- GI50 (OVCAR-4): 33.5 µM (inactive)
- GI50 (UACC-62): 40.6 µM (inactive)
- GI50 (SW-620): 71.9 µM (inactive)
